# Experimental data as given in US20120238520A1, “Novel Medical Use” (priority 2009, published 2012).
# Structures can show the parent of a compound that is named as a salt.
# Key:
# Format in all cases: in vivo, rat
# HCl-instilled rats = experiment: HCl (acid aspiration, chemical injury) model of acute lung injury in anesthetized, ventilated rats; details: rats 2 h after intratracheal HCl pH 1.5, vs HCl alone
# Source text: (§1) The preparation of anesthetized, ventilated rats was used to carry out the below described examples. Techniques of the below described examples have been published (Frank J A, Gutierrez J A, Jones K D, et al.: Low tidal volume reduces epithelial and endothelial injury in acid-injured rat lungs. Am. J. Respir. Crit. Care Med. 165:242-249, 2002; Folkesson H G, Nitenberg G, Oliver B L, et al.: Upregulation of alveolar epithelial fluid transport after subacute lung injury in rats from bleomycin. Am. J. Physiol. 275:L478-490, 1998; Folkesson H G, Norlin A, Wang Y, et al., Dexamethasone and thyroid hormone pretreatment upregulate alveolar epithelial fluid clearance in adult rats. J. Appl. Physiol. 88: 416-424, 2000; and Norlin A, Lu L N, Guggino S E, et al., Contribution of amiloride-insensitive pathways to alveolar fluid clearance in adult rats. J. Appl. Physiol. 90: 1489-1496, 2001).
# The methods used are published in the above given references. […]
# To evaluate the effect of HCl (chemical injury; a model of aspiration-induced acute lung injury), HCl at pH 1.5 was used (FIG. 1, bottom panel illustrates the time scheme used for HCl treatments). […] Blood was sampled for fluorescence and arterial blood gas measurements every 30 min throughout the experiment. […]
# LPS-instilled rats = experiment: LPS (endotoxin, biochemical injury) model of sepsis-induced acute lung injury in anesthetized, ventilated rats; details: rats 16 h after intratracheal LPS 5 mg/kg body wt, vs LPS alone
# Source text: as §1, with “2001). […]” for “2001).”
# To evaluate the effect of endotoxin (biochemical injury; a model of sepsis-induced acute lung injury), E. coli LPS at the concentration of 5 mg/kg body wt was given intratracheally (FIG. 1, top panel illustrates the time scheme used for LPS treatments). […] Blood was sampled for fluorescence and arterial blood gas measurements every 30 min throughout the experiment. […] Alveolar fluid clearance, extravascular lung water, and endothelial-epithelial barrier leak were determined.
# rats = experiment: Test solution instilled into airspaces of anesthetized, ventilated rats without injury-inducing agent; details: compound by itself, 10^−4 M in 5% albumin instilled into airspaces, any experimental group
# Source text: as §1
# The methods used are published in the above given references. A test solution of 5% albumin with and without […] (2R,3R,4S,5R)-2-(6-amino-2-{[(1S)-2-hydroxy-1-(phenylmethyl)ethyl]amino}-9H-purin-9-yl)-5-(2-ethyl-2H-tetrazol-5-yl)tetrahydro-3,4-furandiol maleate dissolved in 0.9% NaCl was used and instilled into the airspaces of rats to measure alveolar fluid clearance with and without the injury-inducing agent (HCl, LPS, or E. coil, see below for details). […]
# [1] = tested on: live E. coli-instilled rats; experiment: Live E. coli DH5α (biological injury) model of sepsis-induced acute lung injury in anesthetized, ventilated rats; details: rats 3 h after intratracheal live E. coli DH5α, vs E. coli alone
# Protocol: The preparation of anesthetized, ventilated rats was used to carry out the below described examples. […]
# To evaluate the effect of live E. coli (biological injury; a model of sepsis-induced acute lung injury), E. coli (serotype DH5α at the concentration of 10^8 cfu/ml was given intratracheally (FIG. 2). Rats were surgically prepared (anesthetized, tracheotomized, outfitted with a carotid artery catheter, and connected to a ventilator). The rats were ventilated for a 30 min baseline of stable blood gases. An instillation catheter was passed to rest just above the bronchial carina and 1 ml/kg body wt of the solution containing 10^8 cfu/ml E. coli DH5α was rapidly instilled into the lungs. The vascular tracer (FITC-labeled albumin) was given after 15 min stabilization time and the 5% albumin solution with and without (2R,3R,4S,5R)-2-(6-amino-2-{[(1S)-2-hydroxy-1-(phenylmethyl)ethyl]amino}-9H-purin-9-yl)-5-(2-ethyl-2H-tetrazol-5-yl)tetrahydro-3,4-furandiol maleate was instilled 2 h later into the distal airspaces of the lung. Blood was sampled for fluorescence and arterial blood gas measurements every 30 min throughout the experiment. […] Alveolar fluid clearance, extravascular lung water, and endothelial-epithelial barrier leak were determined.
smiles,measurement,setting,value
"CCn1nnc([C@H]2O[C@@H](n3cnc4c(N)nc(N[C@H](CO)Cc5ccccc5)nc43)[C@H](O)[C@@H]2O)n1 [(2R,3R,4S,5R)-2-(6-amino-2-{[(1S)-2-hydroxy-1-(phenylmethyl)ethyl]amino}-9H-purin-9-yl)-5-(2-ethyl-2H-tetrazol-5-yl)tetrahydro-3,4-furandiol maleate]",EVLW (extravascular lung water),"HCl-instilled rats; 10^−4 M compound in 5% albumin instilled into airspaces, FIG. 3 left","a reduction in EVLW was observed, albeit EVLW remained elevated"
same,ELW (excess lung water) reduced by,"HCl-instilled rats; 10^−4 M compound instilled, ELW remained elevated compared to control, FIG. 4 left",~20%
same,EVLW (extravascular lung water),"LPS-instilled rats; 10^−4 M compound in 5% albumin instilled into airspaces, FIG. 3 center",a reduction in EVLW was observed
same,ELW (excess lung water) reduced by,"LPS-instilled rats; 10^−4 M compound instilled, FIG. 4 center",~40%
same,edema formation measured as increased EVLW (extravascular lung water),rats,believed not to result in edema formation
same,EVLW (extravascular lung water),"[1]; 10^−4 M compound in 5% albumin instilled into airspaces, FIG. 3 right",a reduction in EVLW was observed
same,ELW (excess lung water) reduced by,"[1]; 10^−4 M compound instilled, FIG. 4 right",~40%
